Legend:
[1] = target: Fibroblast growth factor receptor 3 (Homo sapiens, UniProt P22607); assay: Inhibition of FGFR3 (unknown origin) using Tyr04 peptide as substrate incubated for 1 hr in presence of ATP by FRET based Z'-LYTE assay
[2] = target: Fibroblast growth factor receptor 2 (Homo sapiens, UniProt P21802); assay: Inhibition of FGFR2 (unknown origin) using Tyr04 peptide as substrate incubated for 1 hr in presence of ATP by FRET based Z'-LYTE assay
[3] = target: Fibroblast growth factor receptor 1 (Homo sapiens, UniProt P11362); assay: Inhibition of FGFR1 (unknown origin) using Tyr04 peptide as substrate incubated for 1 hr in presence of ATP by FRET based Z'-LYTE assay
[4] = target: T1, Tyrosine-protein kinase JAK3 (Homo sapiens, UniProt P52333); assay: Inhibition of JAK3 (unknown origin) incubated for 1 hr in presence of ATP and substrate by FRET based Z'-LYTE assay
T1 sequence (P52333 whole entry): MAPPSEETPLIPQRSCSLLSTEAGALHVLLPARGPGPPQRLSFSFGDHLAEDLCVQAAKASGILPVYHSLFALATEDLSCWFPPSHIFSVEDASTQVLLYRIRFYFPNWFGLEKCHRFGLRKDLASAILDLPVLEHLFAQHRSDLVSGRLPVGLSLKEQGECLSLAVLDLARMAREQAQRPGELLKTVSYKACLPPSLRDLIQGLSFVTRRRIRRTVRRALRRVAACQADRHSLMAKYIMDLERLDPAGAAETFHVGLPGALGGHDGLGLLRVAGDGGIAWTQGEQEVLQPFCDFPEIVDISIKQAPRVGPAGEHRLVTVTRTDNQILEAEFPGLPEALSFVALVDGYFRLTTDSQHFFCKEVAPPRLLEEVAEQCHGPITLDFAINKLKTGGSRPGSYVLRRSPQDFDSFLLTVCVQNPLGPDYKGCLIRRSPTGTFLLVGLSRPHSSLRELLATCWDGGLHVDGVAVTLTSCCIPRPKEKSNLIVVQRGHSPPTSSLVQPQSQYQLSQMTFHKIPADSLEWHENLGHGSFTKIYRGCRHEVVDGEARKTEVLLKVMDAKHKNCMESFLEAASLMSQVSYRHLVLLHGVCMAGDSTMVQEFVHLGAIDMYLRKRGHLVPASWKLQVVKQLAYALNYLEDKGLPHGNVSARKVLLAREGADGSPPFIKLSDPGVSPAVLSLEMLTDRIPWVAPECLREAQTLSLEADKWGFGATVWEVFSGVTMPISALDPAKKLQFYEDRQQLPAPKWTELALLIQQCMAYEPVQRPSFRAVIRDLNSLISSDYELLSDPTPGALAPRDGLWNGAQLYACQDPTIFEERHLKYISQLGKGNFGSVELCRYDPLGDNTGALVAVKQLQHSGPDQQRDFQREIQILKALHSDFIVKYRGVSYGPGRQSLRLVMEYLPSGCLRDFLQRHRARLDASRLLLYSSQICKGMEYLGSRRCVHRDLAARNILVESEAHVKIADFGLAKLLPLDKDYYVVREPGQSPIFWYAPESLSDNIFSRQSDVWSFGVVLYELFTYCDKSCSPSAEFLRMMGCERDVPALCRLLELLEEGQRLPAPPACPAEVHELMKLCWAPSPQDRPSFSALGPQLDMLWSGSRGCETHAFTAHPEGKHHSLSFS

[5] = target: Fibroblast growth factor receptor 4 (Homo sapiens) (UniProt P22455); assay: Reversible covalent binding affinity to recombinant His-tagged human FGFR4 expressed in baculovirus expression system assessed as recovery of kinase activity preincubated for 120 mins followed by dialysis of protein for 3 days by MALDI-TOF MS analysis relative to control; details: time 4440.0 min
Fibroblast growth factor receptor 4 (Homo sapiens), sequence (P22455 22-802 limits assumed): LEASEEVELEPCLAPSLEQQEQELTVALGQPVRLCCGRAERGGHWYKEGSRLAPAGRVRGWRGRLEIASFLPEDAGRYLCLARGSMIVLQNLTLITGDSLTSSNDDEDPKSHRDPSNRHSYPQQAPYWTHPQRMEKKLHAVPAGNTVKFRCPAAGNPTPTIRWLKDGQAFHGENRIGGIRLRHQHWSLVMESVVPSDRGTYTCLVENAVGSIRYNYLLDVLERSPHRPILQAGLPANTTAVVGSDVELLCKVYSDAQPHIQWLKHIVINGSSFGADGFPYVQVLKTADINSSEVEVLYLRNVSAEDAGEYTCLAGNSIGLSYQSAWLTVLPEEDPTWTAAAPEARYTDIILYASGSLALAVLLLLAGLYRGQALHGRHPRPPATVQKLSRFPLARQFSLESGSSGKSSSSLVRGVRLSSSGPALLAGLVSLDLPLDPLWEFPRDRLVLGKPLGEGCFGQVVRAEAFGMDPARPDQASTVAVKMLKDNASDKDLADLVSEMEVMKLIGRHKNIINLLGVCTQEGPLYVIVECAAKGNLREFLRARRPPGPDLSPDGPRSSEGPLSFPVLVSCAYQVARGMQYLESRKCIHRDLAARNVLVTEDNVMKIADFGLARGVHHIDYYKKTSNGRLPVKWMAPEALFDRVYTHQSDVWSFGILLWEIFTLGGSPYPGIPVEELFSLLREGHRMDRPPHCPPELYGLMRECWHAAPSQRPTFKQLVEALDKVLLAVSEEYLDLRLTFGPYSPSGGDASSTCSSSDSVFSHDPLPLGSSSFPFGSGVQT

Fibroblast growth factor receptor 2, sequence (P21802 whole entry): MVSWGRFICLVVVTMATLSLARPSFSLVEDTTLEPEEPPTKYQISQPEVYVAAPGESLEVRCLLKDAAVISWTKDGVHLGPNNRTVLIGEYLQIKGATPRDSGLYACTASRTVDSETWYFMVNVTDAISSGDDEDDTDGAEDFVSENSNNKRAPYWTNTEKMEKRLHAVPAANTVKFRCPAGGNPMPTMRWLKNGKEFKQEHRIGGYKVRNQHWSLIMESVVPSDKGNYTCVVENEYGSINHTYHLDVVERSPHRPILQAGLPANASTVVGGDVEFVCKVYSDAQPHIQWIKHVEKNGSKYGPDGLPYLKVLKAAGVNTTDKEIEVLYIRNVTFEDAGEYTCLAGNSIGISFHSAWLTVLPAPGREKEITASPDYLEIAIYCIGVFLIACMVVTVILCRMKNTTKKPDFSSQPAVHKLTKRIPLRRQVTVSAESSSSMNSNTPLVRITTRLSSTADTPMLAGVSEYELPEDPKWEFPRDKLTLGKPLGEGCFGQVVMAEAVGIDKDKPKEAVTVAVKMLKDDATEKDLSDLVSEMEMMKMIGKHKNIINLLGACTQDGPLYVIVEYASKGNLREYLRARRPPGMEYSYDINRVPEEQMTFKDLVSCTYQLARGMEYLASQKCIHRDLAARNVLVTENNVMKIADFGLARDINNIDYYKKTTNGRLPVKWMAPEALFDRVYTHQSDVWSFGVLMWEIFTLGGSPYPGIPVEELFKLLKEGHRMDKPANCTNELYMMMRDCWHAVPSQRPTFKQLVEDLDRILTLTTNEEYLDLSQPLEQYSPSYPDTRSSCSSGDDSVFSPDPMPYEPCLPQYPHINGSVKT
Fibroblast growth factor receptor 1, sequence (P11362 whole entry): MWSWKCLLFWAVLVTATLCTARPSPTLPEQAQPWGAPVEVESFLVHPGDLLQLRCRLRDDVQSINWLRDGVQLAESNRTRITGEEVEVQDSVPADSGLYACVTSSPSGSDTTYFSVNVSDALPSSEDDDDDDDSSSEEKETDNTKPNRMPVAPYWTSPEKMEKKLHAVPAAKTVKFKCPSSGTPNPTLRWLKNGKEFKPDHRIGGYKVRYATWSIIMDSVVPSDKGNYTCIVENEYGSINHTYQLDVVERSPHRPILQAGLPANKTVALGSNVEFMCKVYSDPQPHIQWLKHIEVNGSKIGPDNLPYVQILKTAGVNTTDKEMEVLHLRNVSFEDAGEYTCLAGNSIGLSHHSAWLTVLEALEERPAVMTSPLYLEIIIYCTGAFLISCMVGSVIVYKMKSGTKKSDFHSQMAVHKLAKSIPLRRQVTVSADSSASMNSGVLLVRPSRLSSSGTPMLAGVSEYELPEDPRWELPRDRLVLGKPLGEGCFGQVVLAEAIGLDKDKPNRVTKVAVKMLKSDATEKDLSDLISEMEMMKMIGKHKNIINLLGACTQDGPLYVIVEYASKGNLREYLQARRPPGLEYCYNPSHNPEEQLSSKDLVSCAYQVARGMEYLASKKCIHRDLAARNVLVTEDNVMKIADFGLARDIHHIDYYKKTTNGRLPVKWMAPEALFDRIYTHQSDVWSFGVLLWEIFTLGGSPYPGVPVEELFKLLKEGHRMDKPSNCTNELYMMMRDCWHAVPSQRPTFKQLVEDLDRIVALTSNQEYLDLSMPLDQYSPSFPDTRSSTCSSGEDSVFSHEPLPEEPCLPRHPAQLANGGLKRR
Fibroblast growth factor receptor 3, sequence (P22607 whole entry): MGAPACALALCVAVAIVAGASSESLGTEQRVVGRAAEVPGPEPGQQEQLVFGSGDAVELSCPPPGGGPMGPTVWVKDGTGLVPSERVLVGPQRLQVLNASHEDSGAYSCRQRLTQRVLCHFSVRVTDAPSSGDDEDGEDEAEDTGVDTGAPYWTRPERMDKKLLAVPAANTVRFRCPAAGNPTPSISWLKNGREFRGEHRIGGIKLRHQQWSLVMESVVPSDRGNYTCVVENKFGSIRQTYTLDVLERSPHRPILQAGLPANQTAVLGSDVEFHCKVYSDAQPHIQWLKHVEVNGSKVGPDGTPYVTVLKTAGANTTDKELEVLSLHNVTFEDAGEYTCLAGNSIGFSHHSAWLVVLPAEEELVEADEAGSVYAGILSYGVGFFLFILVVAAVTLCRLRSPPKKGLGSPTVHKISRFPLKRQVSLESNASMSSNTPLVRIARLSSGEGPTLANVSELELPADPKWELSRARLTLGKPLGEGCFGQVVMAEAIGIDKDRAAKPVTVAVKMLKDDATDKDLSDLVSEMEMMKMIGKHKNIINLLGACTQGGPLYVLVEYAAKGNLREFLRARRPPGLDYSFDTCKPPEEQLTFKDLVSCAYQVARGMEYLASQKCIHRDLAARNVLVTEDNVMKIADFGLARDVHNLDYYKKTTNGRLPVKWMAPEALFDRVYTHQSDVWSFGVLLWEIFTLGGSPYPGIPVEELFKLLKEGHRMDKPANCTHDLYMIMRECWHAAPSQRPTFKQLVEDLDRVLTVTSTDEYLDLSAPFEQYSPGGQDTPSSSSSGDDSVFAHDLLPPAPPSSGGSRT

| IC50 [1] [µM] | IC50 [2] [µM] | IC50 [3] [µM] | IC50 [4] [µM] | Activity [5] [%] | Compound |
| --- | --- | --- | --- | --- | --- |
| > 10 | > 10 | > 10 | – | – | CC(C)Oc1cc(NC(=O)N2CCCc3ccc(C(=O)C(F)(F)F)nc32)ncc1C#N |
| > 10 | > 10 | > 10 | – | – | CCCOc1cc(NC(=O)N2CCCc3ccc(C(=O)C(F)(F)F)nc32)ncc1C#N |
| – | – | – | 0.0872 | – | O=C(c1ccc(-c2nc3cnc4[nH]ccc4c3n2C2CCCCC2)o1)C(F)(F)F |
| > 10 | > 10 | > 10 | – | – | CCCCOc1cc(NC(=O)N2CCCc3ccc(C(=O)C(F)(F)F)nc32)ncc1C#N |
| > 10 | > 10 | > 10 | – | – | CC(C)Oc1cc(NC(=O)N2CCCc3ccc(C=O)nc32)ncc1C#N |
| > 10 | > 10 | > 10 | – | – | COCCNc1cc(NC(=O)N2CCCc3ccc(C(=O)C(F)(F)F)nc32)ncc1C#N |
| > 10 | > 10 | > 10 | – | – | N#Cc1cnc(NC(=O)N2CCCc3ccc(C(=O)C(F)(F)F)nc32)cc1OC1CCCCC1 |
| > 10 | > 10 | > 10 | – | – | N#Cc1cnc(NC(=O)N2CCCc3ccc(C(=O)C(F)(F)F)nc32)cc1OC1CCOC1 (stereo not given) |
| – | – | – | – | 100 | Cc1ccc(C(=O)Nc2ccc(CN3CCN(C)CC3)c(C(F)(F)F)c2)cc1C#Cc1cnc2cccnn12 |
| > 10 | > 10 | > 10 | – | – | COCCOc1cc(NC(=O)N2CCCc3ccc(C(=O)C(F)(F)F)nc32)ncc1C#N |
| > 10 | > 10 | > 10 | – | – | CCOc1cc(NC(=O)N2CCCc3ccc(C(=O)C(F)(F)F)nc32)ncc1C#N |
| > 10 | > 10 | > 10 | – | – | COc1cc(NC(=O)N2CCCc3ccc(C(=O)C(F)(F)F)nc32)ncc1C#N |
| > 10 | > 10 | > 10 | – | – | N#Cc1cnc(NC(=O)N2CCCc3ccc(C(=O)C(F)(F)F)nc32)cc1OC1CCCC1 |
